Experimental data from patent publication US9775831B2, “Combinations comprising biphenyl derivatives for use in the treatment of HCV” (BRISTOL-MYERS SQUIBB COMPANY, priority 2013, dated 2017).
Read-outs that look alike come from different tables or passages of the source.

Columns and labels:
[1] = tested on: genotype-1a variant with glutamine 30 changed to glutamate in the NS5A protein; conditions: cited from earlier work
[2] = tested on: genotype-1a variant with glutamine 30 changed to glutamate in the NS5A protein; test: HCV replicon cell-based assay, NS5A synergy with BMS-790052; conditions: genotype 1a Q→E variant; test compound titrated in combination with NS5A-targeting compound (BMS-790052 fixed at 200 nM)
Source text: The NS5A synergistic inhibitory effect of test compounds can be determined using various amounts of an NS5A-targeting compound with titration of a second compound of interest. […] In one embodiment, the HCV genotype strain can be genotype 1a containing a change at amino acid 30 of the NS5A protein consisting of glutamine to glutamate. The test compound can be chosen from compounds listed above or from others present in the literature.

[3] = genotype-1a Q30E NS5A variant replicon, compound alone, read-out: EC50, titrated singly

Structure (SMILES)	Fold Synergistic (1a-QE) [2] [Fold]	further results
COC(=O)N[C@H](C(=O)N1CCC[C@H]1c1nc(-c2ccc(-c3ccc(-c4c[nH]c([C@@H]5CCCN5C(=O)[C@@H](NC(=O)OC)C(C)C)n4)cc3)cc2)c[nH]1)C(C)C [BMS-790052]	–	reciprocal synergistic inhibitory effect for the combination ([1]; BMS-790052 titrated with P-55 fixed at 200 nM, genotype-1a Q30E variant): ~100 fold; EC50 [1, 3]: ~200 nM; EC50 ([1]; genotype-1a Q30E variant, P-55 fixed at 200 nM, read-out: EC50 of BMS-790052 in the presence of a fixed amount of P-55): ~2 nM
CC(C)CC(=O)N[C@H](c1ncc(-c2ccc(-c3ccc(-c4cnc([C@@H](NC(=O)CC(C)C)C(C)C)[nH]4)cc3)cc2)[nH]1)C(C)C [Example P-55]	–	synergistic inhibitory effect for the combination ([1]; P-55 titrated with BMS-790052 fixed at 200 nM, genotype-1a Q30E variant): > 100 fold; EC50 [1, 3]: > 200 nM; EC50 ([1]; genotype-1a Q30E variant, BMS-790052 fixed at 200 nM, read-out: EC50 of P-55 in the presence of a fixed amount of BMS-790052): ~2 nM
C[C@@H]1CN(C(=O)C[C@@H](C)c2ncc(-c3ccc(-c4ccc(-c5cnc([C@H](C)CC(=O)N6C[C@@H](C)O[C@@H](C)C6)[nH]5)cc4)cc3)[nH]2)C[C@H](C)O1 [Example MD-36]	>10	–
CC(C)(C)NC(=O)C(c1ncc(-c2ccc(-c3ccc(-c4cnc(C(C(=O)NC(C)(C)C)C(C)(C)C)[nH]4)cc3)cc2)[nH]1)C(C)(C)C (stereo not drawn) [Example B1]	>100	–
CC(C)(C)C(C(=O)N1CCCC1)c1ncc(-c2ccc(-c3ccc(-c4cnc(C(C(=O)N5CCCC5)C(C)(C)C)[nH]4)cc3)cc2)[nH]1 (stereo not drawn) [Example B4]	<10	–
CC(C)[C@H](CC(=O)NC[C@@H]1CC[C@H]2C[C@@H]1C2(C)C)c1ncc(-c2ccc(-c3ccc(-c4cnc([C@@H](CC(=O)NC[C@@H]5CC[C@H]6C[C@@H]5C6(C)C)C(C)C)[nH]4)cc3)cc2)[nH]1 [MD-21]	>100	–
CCCN(CC1CC1)C(=O)C[C@H](c1ncc(-c2ccc(-c3ccc(-c4cnc([C@@H](CC(=O)N(CCC)CC5CC5)C(C)C)[nH]4)cc3)cc2)[nH]1)C(C)C [MD-44]	>10	–
CC(C)CNC(=O)[C@@H]1OCO[C@H]1c1ncc(-c2ccc(-c3ccc(-c4cnc([C@@H]5OCO[C@H]5C(=O)NCC(C)C)[nH]4)cc3)cc2)[nH]1 [MD-14]	<10	–
CCN(CC)C(=O)CN(C)C(=O)C[C@H](c1ncc(-c2ccc(-c3ccc(-c4cnc([C@@H](CC(=O)N(C)CC(=O)N(CC)CC)C(C)C)[nH]4)cc3)cc2)[nH]1)C(C)C [MD-24]	>10	–
C[C@H](CC(=O)NC1CCOCC1)c1ncc(-c2ccc(-c3ccc(-c4cnc([C@H](C)CC(=O)NC5CCOCC5)[nH]4)cc3)cc2)[nH]1 [MD-39]	>10	–
CC1(C)O[C@@H](C(N)=O)[C@H](c2ncc(-c3ccc(-c4ccc(-c5coc([C@@H]6OC(C)(C)O[C@H]6C(N)=O)n5)cc4)cc3)[nH]2)O1 [MD-10]	<10	–
